Results from US20140243401A1, “METHODS OF SCREENING COMPOUNDS THAT ARE CYTOTOXIC TO TUMOR CELLS AND METHODS OF TREATING TUMOR CELLS USING SUCH COMPOUND” (The Johns Hopkins University, priority 2010, published 2014).
Values after ≈ are worked out from the molar mass of the structure shown.

Assays:
Type I cytosolic FAS = molecular target: T1, Type I cytosolic FAS (Homo sapiens, UniProt P49327); test: Type I cytosolic FAS activity, [14C]malonyl-CoA incorporation into lipid in MCF7 cell lysates; format: biochemical; details: MCF7 human breast cancer cell lysates, read-out: IC50, inhibition of Type I cytosolic FAS activity
T1 construct: incorporation into lipid in MCF7 human breast cancer cell lysates; endogenous in cells; host or cells: MCF7 human breast cancer cell lysate
T1 sequence (P49327 whole entry): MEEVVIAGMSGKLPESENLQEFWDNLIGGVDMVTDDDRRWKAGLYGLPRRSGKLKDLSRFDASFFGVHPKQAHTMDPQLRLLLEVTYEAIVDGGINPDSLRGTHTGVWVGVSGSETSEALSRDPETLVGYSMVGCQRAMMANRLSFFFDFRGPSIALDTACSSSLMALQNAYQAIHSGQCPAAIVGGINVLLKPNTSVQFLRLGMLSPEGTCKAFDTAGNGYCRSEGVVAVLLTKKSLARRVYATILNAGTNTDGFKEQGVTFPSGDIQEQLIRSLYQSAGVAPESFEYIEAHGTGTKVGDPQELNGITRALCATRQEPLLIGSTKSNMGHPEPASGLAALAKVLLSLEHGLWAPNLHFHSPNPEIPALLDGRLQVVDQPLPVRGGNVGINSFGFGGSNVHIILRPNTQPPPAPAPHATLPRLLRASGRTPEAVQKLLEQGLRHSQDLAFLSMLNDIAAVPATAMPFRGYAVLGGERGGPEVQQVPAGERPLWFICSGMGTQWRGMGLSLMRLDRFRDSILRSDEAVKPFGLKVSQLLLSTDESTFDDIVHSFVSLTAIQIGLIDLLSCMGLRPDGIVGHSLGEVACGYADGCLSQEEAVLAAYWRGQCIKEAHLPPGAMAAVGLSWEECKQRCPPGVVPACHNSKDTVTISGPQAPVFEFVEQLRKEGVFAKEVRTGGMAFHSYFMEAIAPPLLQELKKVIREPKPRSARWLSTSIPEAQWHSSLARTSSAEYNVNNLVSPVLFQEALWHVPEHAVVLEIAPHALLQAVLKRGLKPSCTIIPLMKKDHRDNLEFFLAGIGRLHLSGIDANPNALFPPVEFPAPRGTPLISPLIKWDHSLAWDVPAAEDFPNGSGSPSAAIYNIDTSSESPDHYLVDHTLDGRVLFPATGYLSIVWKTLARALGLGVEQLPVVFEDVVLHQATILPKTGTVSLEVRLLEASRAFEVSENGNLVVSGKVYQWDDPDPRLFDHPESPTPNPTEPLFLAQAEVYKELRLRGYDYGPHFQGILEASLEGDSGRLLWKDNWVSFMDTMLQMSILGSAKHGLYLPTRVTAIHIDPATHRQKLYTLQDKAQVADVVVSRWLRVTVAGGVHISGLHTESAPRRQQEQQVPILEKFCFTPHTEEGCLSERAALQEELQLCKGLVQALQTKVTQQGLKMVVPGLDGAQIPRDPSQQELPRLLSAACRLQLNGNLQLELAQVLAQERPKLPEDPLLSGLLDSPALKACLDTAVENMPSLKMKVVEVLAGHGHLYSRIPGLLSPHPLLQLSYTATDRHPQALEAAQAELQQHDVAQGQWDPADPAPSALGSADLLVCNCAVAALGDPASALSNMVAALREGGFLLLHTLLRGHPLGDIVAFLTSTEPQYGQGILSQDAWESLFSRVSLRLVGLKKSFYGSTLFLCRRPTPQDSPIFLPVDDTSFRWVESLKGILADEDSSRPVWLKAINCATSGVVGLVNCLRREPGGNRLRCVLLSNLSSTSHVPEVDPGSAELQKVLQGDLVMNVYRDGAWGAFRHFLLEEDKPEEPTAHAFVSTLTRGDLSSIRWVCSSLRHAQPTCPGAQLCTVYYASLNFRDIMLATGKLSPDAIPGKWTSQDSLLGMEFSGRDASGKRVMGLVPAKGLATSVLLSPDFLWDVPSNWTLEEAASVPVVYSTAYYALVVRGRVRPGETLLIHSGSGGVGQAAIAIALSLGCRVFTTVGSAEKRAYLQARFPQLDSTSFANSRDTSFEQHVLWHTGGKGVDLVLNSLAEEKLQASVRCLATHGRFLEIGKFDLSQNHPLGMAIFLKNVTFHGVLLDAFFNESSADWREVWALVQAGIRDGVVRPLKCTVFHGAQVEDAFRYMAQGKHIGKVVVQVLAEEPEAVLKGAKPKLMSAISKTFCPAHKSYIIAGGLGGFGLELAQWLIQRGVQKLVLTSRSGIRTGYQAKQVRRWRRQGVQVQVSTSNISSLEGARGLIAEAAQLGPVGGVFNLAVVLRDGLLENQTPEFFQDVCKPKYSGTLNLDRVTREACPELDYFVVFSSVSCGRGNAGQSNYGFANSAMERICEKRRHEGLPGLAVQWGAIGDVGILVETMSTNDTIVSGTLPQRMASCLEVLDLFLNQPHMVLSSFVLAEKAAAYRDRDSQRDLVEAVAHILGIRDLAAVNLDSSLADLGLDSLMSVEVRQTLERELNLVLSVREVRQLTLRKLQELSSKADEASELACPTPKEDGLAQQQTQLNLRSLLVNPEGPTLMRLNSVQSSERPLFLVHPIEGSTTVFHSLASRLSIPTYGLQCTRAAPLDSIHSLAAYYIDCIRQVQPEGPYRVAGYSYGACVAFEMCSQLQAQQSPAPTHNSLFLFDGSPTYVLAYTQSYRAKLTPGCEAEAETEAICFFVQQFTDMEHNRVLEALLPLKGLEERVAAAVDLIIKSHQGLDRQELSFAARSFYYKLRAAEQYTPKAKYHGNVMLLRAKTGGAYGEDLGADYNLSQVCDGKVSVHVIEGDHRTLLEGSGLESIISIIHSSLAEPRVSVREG
Source text: The invention provides for methods that involve determining and/or measuring Type I and mmFAS activity. Methods of measuring Type I FAS activity are known in the art. (See, e.g., U.S. Pat. Nos. 5,759,837 and 5,981,575, which are hereby incorporated by reference in their entirety). For example, Type I FAS activity may be measured in whole cells by monitoring the incorporation of [14C]acetate into total lipids. In cell lysates, Type I FAS activity may be measured by monitoring the incorporation of [14C] from malonyl CoA into total lipids. Alternatively, Type I FAS activity may be determined using purified enzyme with acetyl CoA and malonyl CoA as substrates by measuring incorporation of radioactivity or measuring oxidation of NADPH spectrophotometrically. To test the inhibition of Type I FAS activity, a test compound is added to the reaction mixture.

MCF7 cells = test: 14C-acetate incorporation into lipids in MCF7 cells; format: cell-based, human; details: for IC50: Homo sapiens, MCF7 cells
Protocol: (§1) MCF7 human breast cancer cells (a cell line which overexpresses FAS) were cultured in DMEM containing 5 mM glucose medium with 10% fetal calf serum, 0.01 mg/ml insulin and 1% penicillin/streptomycin. For measurement of fatty acid synthesis cells were cultured in 24-well plates at 5×10^4 per well and incubated overnight. Fatty acid synthesis was assayed by a 2 h pulse of [U^14C]acetate, 1 μCi/well, followed by Folch extraction and scintillation counting. Test compounds were added with the addition of drugs as described. Controls were treated with DMSO alone.
as §1, with “cells” for “cells (a cell line which overexpresses FAS)”, “containing 1 mM or” for “containing”, “glucose in the” for “glucose”, “penicillin/streptomycin. The cells were grown in two oxygen conditions, normoxia (21% 02) or hypoxia (1% 02).” for “penicillin/streptomycin.”, “counting” for “counting. Test compounds were added”

mitochondrial FAS = test: 14C-malonate incorporation into lipids of mitochondria isolated from MCF7 cells; format: biochemical, human; details: FIG. 2, vs vehicle
Protocol: Mammalian mitochondrial FAS activity may be determined in a variety of ways. For example, [14C]malonate may be added to isolated mitochondria, fatty acids are extracted, and then radioactivity is tested. (See Zhang et al., J. Bio. Chem. 278(41): 40067-40074, 2003; Mikolajczyk, J. and Brody, S., Eur. J. Biochem. 187: 431-437, 1990). The mitochondria are purified using methods known in the art. (See Qiagen's Qproteome Mitochondria Isolation Kit; Methods in Enzymology, Vol. 10, Chapter 11, 1967). To test the inhibition of mmFAS activity, a test compound is added to the reaction mixture. Therefore, a test compound may be screened according the methods described herein as follows: (i) isolating mitochondria; (ii) incubating mitochondria with [14C]malonate with and without a test compound; and (iii) determining the quantity of lipids and/or fatty acids produced. By comparing the amount of product in the presence of the test compound to the amount in its absence, the degree of inhibition can be determined.
Mitochondria from MCF7 cells were prepared following manufacturer's protocol (Mitochondria Isolation Kit, Sigma, Saint Louis, Mo.). Rat liver mitochondria were isolated by homogenization with a tissue homogenizer in H-medium (220 mM mannitol, 70 mM sucrose, 2 mM HEPES, and 0.5 g/L of fatty acid free bovine serum albumin, pH 7.4). […]

Human hepatoma cell line = test: XTT cytotoxicity assay, human hepatoma cell line; format: cell-based; details: 1 human hepatoma cell line, read-out: LC50 (the source's name)
Protocol: Cytotoxicity can be easily measured using XTT assays, which provide an indication of mitochondrial activity. The XTT assay is a non-radioactive alternative for the [^51Cr] release cytotoxicity assay. XTT is a tetrazolium salt that is reduced to a formazan dye only by metabolically active, viable cells. The reduction of XTT is measured spectrophotometrically as OD490-OD650. Thus, cells that are actively metabolizing will form reaction product when subjected to XTT measurement.
For this experiment, cells were cultured under standard culture conditions. MCF7 human breast cancer cells were cultured in DMEM containing 5 mM glucose medium with 10% fetal calf serum, 0.01 mg/ml insulin and 1% penicillin/streptomycin. To measure the cytotoxicity of specific compounds against cancer cells, 9×10^3 MCF7 cells were plated per well in 96-well plates. Following overnight culture, the compounds, dissolved in DMSO, were added to the wells in 1 μl volume at specified concentrations. Vehicle controls were run for each experiment. Each condition was run in triplicate. […] Plates were read at OD490 on a PerkinElmer Victor 1420. […]
Using the XTT assay, LC50 values for C31 were determined for numerous human cancer cell lines and human hepatocytes, as shown in the following table: […]

## CCCCCCCCC1(C)SC(=O)C=C1OCC(=O)Nc1ccc(Cl)cc1 (stereo not drawn) [Compound C31]
Type I cytosolic FAS
  IC50: 17.8 µM
MCF7 cells; first experiment, FIG. 1
  IC50: 17 µg/mL
MCF7 cells; second experiment
  IC50: 13.6 µM
MCF7 cells; MCF7, 1 mM or 5 mM glucose, 21% or 1% O2, FIG. 14
  inhibition of FAS activity (14C-acetate incorporation): increasingly effective at inhibiting FAS activity
Mitochondrial FAS
  effect on 14C-malonate incorporation into lipids of isolated mitochondria: inhibited the incorporation of malonate into lipids in a dose-dependent manner
Human hepatoma cell line
  CC50: 5 µg/mL (≈ 12.2 µM)
